This assay addresses T1, human μ opiate receptor (Homo sapiens, UniProt P35372).
T1 construct: purchased PerkinElmer Life Sciences, Zaventem, Belgium RB-HOM; host or cells: CHO-K1 cells (membrane preparation)
Nature of the assay: Affinity for the human μ opiate receptor ([3H]-naloxone displacement, CHO-K1 receptor membrane preparation, SPA). In kind it is binding. Conditions: test concentration of 1 μM; read-out: μ (binding on the μ opioid receptor, % inhibition). Put shortly: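 Scintillation proximity binding on human μ receptor membranes from CHO-K1 cells used 1 nmol/l [3H]-naloxone over 90 min at room temperature in 50 mmol/l Tris-HCl, 0.06% BSA. Percent inhibition was recorded at 1 μM.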

14 molecules from US8106055B2, “Substituted amide compounds” (Gruenenthal GmbH, priority 2007, dated 2012) can be followed below.

T1 sequence (P35372 whole entry): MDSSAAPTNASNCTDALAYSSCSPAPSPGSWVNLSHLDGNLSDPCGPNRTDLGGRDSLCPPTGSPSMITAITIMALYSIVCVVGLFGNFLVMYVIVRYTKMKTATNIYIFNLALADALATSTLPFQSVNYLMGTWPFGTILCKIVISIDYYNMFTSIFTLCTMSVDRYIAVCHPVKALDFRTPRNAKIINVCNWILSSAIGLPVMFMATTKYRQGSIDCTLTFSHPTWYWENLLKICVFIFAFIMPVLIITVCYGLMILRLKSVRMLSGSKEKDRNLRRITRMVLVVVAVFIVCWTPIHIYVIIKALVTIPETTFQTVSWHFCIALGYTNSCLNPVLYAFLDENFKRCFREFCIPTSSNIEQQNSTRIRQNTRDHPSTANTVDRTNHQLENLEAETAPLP

For the molecule `Cc1ccc(S(=O)(=O)N2CCC(OCC(=O)NCC3CCC(C(c4cccc(F)c4)N(C)C)CC3)C2)cc1` (centres unmarked) [Example 185, N-((4-((dimethylamino)(3-fluorophenyl)methyl)cyclohexyl)methyl)-2-(1-tosylpyrrolidin-3-yloxy)acetamide], the inhibition at 1 µM is 78%.

As to `CN(C)C(c1cccc(F)c1)C1CCC(CCNC(=O)COCCN(C)S(=O)(=O)c2ccc(Cl)cc2)CC1` (centres unmarked) [Example 186, 2-(2-(4-chloro-N-methylphenylsulfonamido)ethoxy)-N-(2-(4-((dimethylamino)(3-fluorophenyl)methyl)cyclohexyl)ethyl)acetamide], the inhibition at 1 µM turned out to be 87%.

Regarding `CN(C)C(c1cccc(F)c1)C1CCC(CNC(=O)COCCN(C)S(=O)(=O)c2c(Cl)cc(Cl)cc2Cl)CC1` (centres unmarked) [Example 188, N-((4-((dimethylamino)(3-fluorophenyl)methyl)cyclohexyl)methyl)-2-(2-(2,4,6-trichloro-N-methylphenylsulfonamido)ethoxy)acetamide], the inhibition at 1 µM came to 87%.

For the molecule `COc1cc(C)c(S(=O)(=O)N2CCC(OCC(=O)NC3CCC(C(c4cccc(F)c4)N(C)C)CC3)C2)c(C)c1C` (centres unmarked) [Example 189, N-(4-((dimethylamino)(3-fluorophenyl)methyl)cyclohexyl)-2-(1-(4-methoxy-2,3,6-trimethylphenylsulfonyl)pyrrolidin-3-yloxy)acetamide], the inhibition at 1 µM worked out at 84%.

For `COc1ccc(S(=O)(=O)N2Cc3ccccc3CC2COCC(=O)NCCC2CCC(C(c3cccc(F)c3)N(C)C)CC2)cc1` (centres unmarked) [Example 190, N-(2-(4-((dimethylamino) (3-fluorophenyl)methyl)cyclohexyl)ethyl)-2-((2-(4-methoxyphenylsulfonyl)-1,2,3,4-tetrahydroisoquinolin-3-yl)methoxy)acetamide], the inhibition at 1 µM was 83%.

Turning to `COc1ccc(S(=O)(=O)N2CCCCC2COCC(=O)NCCC2CCC(C(c3cccc(F)c3)N(C)C)CC2)cc1OC` (centres unmarked) [Example 191, 2-((1-(3,4-dimethoxyphenylsulfonyl)piperidin-2-yl)methoxy)-N-(2-(4-((dimethylamino)(3-fluorophenyl)methyl)cyclohexyl)ethyl)acetamide], the inhibition at 1 µM came to 85%.

On to `CN(C)C(c1cccc(F)c1)C1CCC(CCNC(=O)COCCN(C)S(=O)(=O)c2cccc(C(F)(F)F)c2)CC1` (centres unmarked) [Example 192, N-(2-(4-((dimethylamino)(3-fluorophenyl)methyl)cyclohexyl)ethyl)-2-(2-(N-methyl-3-(trifluoromethyl)phenylsulfonamido)ethoxy)acetamide], for which the inhibition at 1 µM was found to be 88%.

Turning to `COc1cc(C)c(S(=O)(=O)N(CCOCC(=O)NC2CCC(C(c3ccccc3)N(C)C)CC2)Cc2ccccc2)c(C)c1C` (centres unmarked) [Example 193, 2-(2-(N-benzyl-4-methoxy-2,3,6-trimethylphenylsulfonamido)ethoxy)-N-(4-((dimethylamino) (phenyl)methyl)cyclohexyl)acetamide], the inhibition at 1 µM came out at 85%.

In the case of `CN(C)C(c1cccs1)C1CCC(NC(=O)COC2CCN(S(=O)(=O)c3ccccc3)C2)CC1` (centres unmarked) [Example 194, N-(4-((dimethylamino)(thiophen-2-yl)methyl)cyclohexyl)-2-(1-(phenylsulfonyl)pyrrolidin-3-yloxy)acetamide], the inhibition at 1 µM turned out to be 83%.

As for `CN(C)C(c1ccccc1)C1CCC(CNC(=O)COC2CCN(S(=O)(=O)c3ccccc3)C2)CC1` (centres unmarked) [Example 195, N-((4-((dimethylamino)(phenyl)methyl)cyclohexyl)methyl)-2-(1-(phenylsulfonyl)pyrrolidin-3-yloxy)acetamide], the inhibition at 1 µM was 83%.

For the molecule `CN(C)C(c1cccc(F)c1)C1CCC(NC(=O)COCCN(C)S(=O)(=O)c2ccc(Cl)cc2)CC1` (centres unmarked) [Example 196, 2-(2-(4-chloro-N-methylphenylsulfonamido)ethoxy)-N-(4-((dimethylamino)(3-fluorophenyl)methyl)cyclohexyl)acetamide], the inhibition at 1 µM came to 81%.

As to `COc1cc(C)c(S(=O)(=O)N(C)CCOCC(=O)NCCC2CCC(C(c3cccc(F)c3)N(C)C)CC2)c(C)c1` (centres unmarked) [Example 197, N-(2-(4-((dimethylamino)(3-fluorophenyl)methyl)cyclohexyl)ethyl)-2-(2-(4-methoxy-N,2,6-trimethylphenylsulfonamido)ethoxy)acetamide], the inhibition at 1 µM was found to be 85%.

`COc1cc(C)c(S(=O)(=O)N2CCC(OCC(=O)NCCC3CCC(C(c4cccs4)N(C)C)CC3)C2)c(C)c1` (centres unmarked) [Example 199, N-(2-(4-((dimethylamino)(thiophen-2-yl)methyl)cyclohexyl)ethyl)-2-(1-(4-methoxy-2,6-dimethylphenylsulfonyl)pyrrolidin-3-yloxy)acetamide]: the inhibition at 1 µM is 87%.

`COc1cc(C)c(S(=O)(=O)N2CCN(CCOCC(=O)NCCC3CCC(C(c4cccc(F)c4)N(C)C)CC3)CC2)c(C)c1C` (centres unmarked) [Example 200, N-(2-(4-((dimethylamino)(3-fluorophenyl)methyl)cyclohexyl)ethyl)-2-(2-(4-(4-methoxy-2,3,6-trimethylphenylsulfonyl)piperazin-1-yl)ethoxy)acetamide]: the inhibition at 1 µM worked out at 80%.

In general, inhibition refers to the share of the control response that was lost under treatment.
